The structures appear in SMILES notation. Some results are limits rather than exact numbers.

The target of the test is Sigma non-opioid intracellular receptor 1 (Cavia porcellus) (UniProt Q60492). The experiment in a line: Binding affinity for sigma 1 opioid receptor, measured on guinea pig brain membranes using [3H]- (+)-pentazocine as radioligand.
Chain of Sigma non-opioid intracellular receptor 1 (Cavia porcellus) (Q60492 whole entry, looked up): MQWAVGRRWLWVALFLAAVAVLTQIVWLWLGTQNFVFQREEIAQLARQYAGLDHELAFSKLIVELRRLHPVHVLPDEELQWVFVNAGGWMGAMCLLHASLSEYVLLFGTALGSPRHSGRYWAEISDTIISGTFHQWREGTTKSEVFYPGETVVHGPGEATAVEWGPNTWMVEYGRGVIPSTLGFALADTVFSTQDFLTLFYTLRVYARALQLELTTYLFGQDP
`O=C(Nc1cccc2ccccc12)NC1CCN(Cc2ccccc2)CC1` [1-(1-Benzyl-piperidin-4-yl)-3-naphthalen-1-yl-urea]: the Ki – broadly, the dissociation constant of the complex between target and ligand, obtained from inhibition or displacement – turned out to be 22.7 nM.
With `O=C(Cc1ccccc1F)NC1CCN(Cc2cccc(I)c2)CC1` [2-(2-Fluoro-phenyl)-N-[1-(3-iodo-benzyl)-piperidin-4-yl]-acetamide] the figure was 15.4 nM.
With `O=C(Cc1ccccc1F)NC1CCN(Cc2ccc(I)cc2)CC1` [2-(2-Fluoro-phenyl)-N-[1-(4-iodo-benzyl)-piperidin-4-yl]-acetamide] the figure was 4.2 nM; with `O=C(Cc1cccc(Br)c1)NC1CCN(Cc2cccc(I)c2)CC1` [2-(3-Bromo-phenyl)-N-[1-(3-iodo-benzyl)-piperidin-4-yl]-acetamide], 3.49 nM.
In the case of `O=C(Cc1cccc(Br)c1)NC1CCN(Cc2ccc(F)cc2)CC1` [2-(3-Bromo-phenyl)-N-[1-(4-fluoro-benzyl)-piperidin-4-yl]-acetamide], the inhibition constant (Ki) was 1.21 nM.
In the case of `O=C(Cc1cccc(Br)c1)NC1CCN(Cc2ccc(I)cc2)CC1` [2-(3-Bromo-phenyl)-N-[1-(4-iodo-benzyl)-piperidin-4-yl]-acetamide], the Ki was determined as 1.78 nM.
With `O=C(Cc1cccc(Cl)c1)NC1CCN(Cc2cccc(I)c2)CC1` [2-(3-Chloro-phenyl)-N-[1-(3-iodo-benzyl)-piperidin-4-yl]-acetamide] the figure was 2.31 nM.
The molecule `O=C(Cc1cccc(Cl)c1)NC1CCN(Cc2ccc(F)cc2)CC1` [2-(3-Chloro-phenyl)-N-[1-(4-fluoro-benzyl)-piperidin-4-yl]-acetamide] registered a Ki of 1.15 nM.
`O=C(Cc1cccc(Cl)c1)NC1CCN(Cc2ccc(I)cc2)CC1` [2-(3-Chloro-phenyl)-N-[1-(4-iodo-benzyl)-piperidin-4-yl]-acetamide] yielded a Ki of 3.21 nM.
For `O=C(Cc1cccc(F)c1)NC1CCN(Cc2cccc(I)c2)CC1` [2-(3-Fluoro-phenyl)-N-[1-(3-iodo-benzyl)-piperidin-4-yl]-acetamide], the Ki amounted to 4.29 nM.
`O=C(Cc1cccc(F)c1)NC1CCN(Cc2ccc(I)cc2)CC1` [2-(3-Fluoro-phenyl)-N-[1-(4-iodo-benzyl)-piperidin-4-yl]-acetamide] returned a Ki of 2.25 nM.
With `O=C(Cc1ccccc1)NC1CCN(Cc2ccccc2C(F)(F)F)CC1` [2-Phenyl-N-[1-(2-trifluoromethyl-benzyl)-piperidin-4-yl]-acetamide] the figure was > 1000 nM; with `O=C(Cc1ccccc1)NC1CCN(Cc2cccc(C(F)(F)F)c2)CC1` [2-Phenyl-N-[1-(3-trifluoromethyl-benzyl)-piperidin-4-yl]-acetamide], 141 nM; with `O=C(Cc1ccccc1)NC1CCN(Cc2ccc(C(F)(F)F)cc2)CC1` [2-Phenyl-N-[1-(4-trifluoromethyl-benzyl)-piperidin-4-yl]-acetamide], 87 nM.
The molecule `O=C(Cc1cnc[nH]1)NC1CCN(Cc2ccccc2)CC1` [N-(1-Benzyl-piperidin-4-yl)-2-(1H-imidazol-4-yl)-acetamide] yielded a Ki of 248 nM.
Take `O=C(Cc1c[nH]c2ccccc12)NC1CCN(Cc2ccccc2)CC1` [N-(1-Benzyl-piperidin-4-yl)-2-(1H-indol-3-yl)-acetamide]: the Ki was determined as 10.9 nM.
Under `O=C(Cc1ccc(I)cc1)NC1CCN(Cc2ccccc2)CC1` [N-(1-Benzyl-piperidin-4-yl)-2-(4-iodo-phenyl)-acetamide] stands 13.8 nM; under `O=C(Cc1c[nH]c2ccc(Br)cc12)NC1CCN(Cc2ccccc2)CC1` [N-(1-Benzyl-piperidin-4-yl)-2-(5-bromo-1H-indol-3-yl)-acetamide], 51.9 nM.
`COc1ccc2[nH]cc(CC(=O)NC3CCN(Cc4ccccc4)CC3)c2c1` [N-(1-Benzyl-piperidin-4-yl)-2-(5-methoxy-1H-indol-3-yl)-acetamide]: affinity was put at a Ki of 125 nM.
Consider `COc1ccc2c(c1)C(CC(=O)NC1CCN(Cc3ccccc3)CC1)CC2=O` (configuration not stated) [N-(1-Benzyl-piperidin-4-yl)-2-(6-methoxy-3-oxo-indan-1-yl)-acetamide], for which the affinity, expressed as Ki, was 299 nM.
Turning to `O=C1C=CC2C(CC(=O)NC3CCN(Cc4ccccc4)CC3)=CC(=O)OC2C1` (configuration not stated) [N-(1-Benzyl-piperidin-4-yl)-2-(7-hydroxy-2-oxo-4a,8a-dihydro-2H-chromen-4-yl)-acetamide], the Ki was > 1000 nM.
`O=C(CSc1ncccn1)NC1CCN(Cc2ccccc2)CC1` [N-(1-Benzyl-piperidin-4-yl)-2-(pyrimidin-2-ylsulfanyl)-acetamide] yielded a Ki of 150 nM.
Under `O=C(Cc1cccc2ccccc12)NC1CCN(Cc2ccccc2)CC1` [N-(1-Benzyl-piperidin-4-yl)-2-naphthalen-1-yl-acetamide] stands 4.64 nM; under `O=C(Cc1ccc2ccccc2c1)NC1CCN(Cc2ccccc2)CC1` [N-(1-Benzyl-piperidin-4-yl)-2-naphthalen-2-yl-acetamide], 61.8 nM; under `O=C(Cc1ccccn1)NC1CCN(Cc2ccccc2)CC1` [N-(1-Benzyl-piperidin-4-yl)-2-pyridin-2-yl-acetamide], 236 nM.
Under `O=C(Cc1cccnc1)NC1CCN(Cc2ccccc2)CC1` [N-(1-Benzyl-piperidin-4-yl)-2-pyridin-3-yl-acetamide] stands 269 nM; under `O=C(Cc1ccncc1)NC1CCN(Cc2ccccc2)CC1` [N-(1-Benzyl-piperidin-4-yl)-2-pyridin-4-yl-acetamide], 298 nM; under `O=C(Cc1cccs1)NC1CCN(Cc2ccccc2)CC1` [N-(1-Benzyl-piperidin-4-yl)-2-thiophen-2-yl-acetamide], 3.93 nM.
With `O=C(Cc1ccsc1)NC1CCN(Cc2ccccc2)CC1` [N-(1-Benzyl-piperidin-4-yl)-2-thiophen-3-yl-acetamide] the figure was 7.2 nM.
With `O=C(Cc1ccccc1)NC1CCN(Cc2ccc3ccccc3c2)CC1` [N-(1-Naphthalen-2-ylmethyl-piperidin-4-yl)-2-phenyl-acetamide], the Ki was 23.9 nM.
As to `O=C(Cc1ccccc1)NC1CCN(CCc2ccccc2)CC1` [N-(1-Phenethyl-piperidin-4-yl)-2-phenyl-acetamide], the Ki was determined as 31.2 nM.
In turn, `O=C(Cc1ccccc1)NC1CCN(Cc2ccccc2F)CC1` [N-[1-(2-Fluoro-benzyl)-piperidin-4-yl]-2-phenyl-acetamide] came in with an inhibition constant Ki of 10.2 nM.
`O=C(Cc1ccccc1)NC1CCN(Cc2ccccc2I)CC1` [N-[1-(2-Iodo-benzyl)-piperidin-4-yl]-2-phenyl-acetamide] registered a Ki of 347 nM.
In turn, `O=C(Cc1ccccc1)NC1CCN(Cc2ccc(Cl)c(Cl)c2)CC1` [N-[1-(3,4-Dichloro-benzyl)-piperidin-4-yl]-2-phenyl-acetamide] came in with a Ki of 7.24 nM.
Under `O=C(Cc1ccccc1)NC1CCN(Cc2ccc(F)c(F)c2)CC1` [N-[1-(3,4-Difluoro-benzyl)-piperidin-4-yl]-2-phenyl-acetamide] stands 6.3 nM; under `O=C(Cc1ccccc1)NC1CCN(Cc2cccc(F)c2)CC1` [N-[1-(3-Fluoro-benzyl)-piperidin-4-yl]-2-phenyl-acetamide], 8.22 nM.
`O=C(Cc1ccccc1)NC1CCN(Cc2cccc(I)c2)CC1` [N-[1-(3-Iodo-benzyl)-piperidin-4-yl]-2-phenyl-acetamide] had an inhibitory constant (Ki) of 6.75 nM.
With `O=C(Cc1ccccc1F)NC1CCN(Cc2ccc(F)cc2)CC1` [N-[1-(4-Fluoro-benzyl)-piperidin-4-yl]-2-(2-fluoro-phenyl)-acetamide] the figure was 3.15 nM; with `O=C(Cc1cccc(F)c1)NC1CCN(Cc2ccc(F)cc2)CC1` [N-[1-(4-Fluoro-benzyl)-piperidin-4-yl]-2-(3-fluoro-phenyl)-acetamide], 5.51 nM.
For the molecule `O=C(Cc1ccccc1)NC1CCN(Cc2ccc(F)cc2)CC1` [N-[1-(4-Fluoro-benzyl)-piperidin-4-yl]-2-phenyl-acetamide], the Ki was 6.59 nM.
`O=C(Cc1ccccc1)NC1CCN(Cc2ccc(I)cc2)CC1` [N-[1-(4-Iodo-benzyl)-piperidin-4-yl]-2-phenyl-acetamide] registered a Ki of 9.03 nM.
With `O=C(Cc1ccccc1)NC1CCN(Cc2ccc([N+](=O)[O-])cc2)CC1` [N-[1-(4-Nitro-benzyl)-piperidin-4-yl]-2-phenyl-acetamide] the figure was 19.1 nM.

The values are drawn from BindingDB's records for doi:10.1021/jm010384j (Wake Forest University School of Medicine, 2001).
